# Data: patent US20180049996A1, “THERAPEUTIC AGENT FOR CHRONIC RESPIRATORY DISEASE AND COMPOSITION FOR INHIBITING CARDIAC FIBROSIS” (NIPPON HYPOX LABORATORIES INCORPORATED, priority 2015, published 2018)
# Legend:
# [1] = system: TNF-α; experiment: TNF-α level in BAL fluid (ELISA), COPD model; type: in vivo, C57BL/6N mice; conditions: HTHQ 10 and 20 mg/kg/day oral; tobacco smoke 10 days + LPS; compared to COPD model group
# Protocol: 6 week old male SPF C57BL/6N mice, 20 to 25 g of body weight, were purchased from CORETEC INC. (South Korea).
# The tests were conducted as follows. The mice in the COPD (chronic obstructive pulmonary disease) model group of the test groups were exposed to tobacco smoke for 1 hour per day (8 cigarettes/day) for 10 days and LPS (5 μg/50 μL/mouse) was intranasally administered to the mice on day 8 after the start of the tests. […]
# The mice in the test groups were euthanized 72 hours after the LPS administration and the mice in the normal control group were euthanized on day 11 after the start of the tests by intraperitoneal injection of pentobarbital (Hanrimu pharmaceutical, South Korea) at 50 mg/kg and then the bronchi were excised. […] After preparing slide samples from 100 μL of BAL cell fluid using Cytospin (4° C., 1000 rpm×5 min), the cell numbers of inflammatory cells (neutrophil, macrophages) present in the BAL fluid were counted using a Diff-Quik stain kit.
# The supernatant of the BAL fluid stored was taken out of the super-cryostat, and TNF-α and IL-6 levels were measured as the levels of pro-inflammatory cytokines in the supernatant. A quantitative ELISA kit (a product from Invitrogen) and an ELISA analyzer (a product from Molecular Devices, LLC.) were used for the measurement and the measurement wavelength was 450 nm.
# [2] = system: IL-13; experiment: IL-13 level in BAL fluid (ELISA), ovalbumin asthma model; type: in vivo, BALB/c female mice; conditions: HTHQ 20 and 40 mg/kg/day oral; compared to OVA group
# Protocol: (§1) 6 week old BALB/c female mice were purchased and the mice were divided into 5 groups with 5 animals per group shown in Table 3 below after habituation breeding of about 2 weeks.
# The test was conducted on the schedule of sensitization, causing diseases and administration of test materials shown in FIG. 12. “IP” in FIG. 12 refers to ovalbumin sensitization treatment by the intraperitoneal administration of ovalbumin/aluminum hydroxide, and “IH” refers to inhalation exposure treatment of ovalbumin, and “PO” refers to the administration of the test materials. […]
# All mice were euthanized by intraperitoneal injection of pentobarbital (Hanrimu pharmaceutical, South Korea) at 50 mg/kg and the bronchi were excised on day 25 of the test. […] After preparing slide samples from 100 μL of BAL cell fluid using Cytospin (4° C., 1000 rpm×5 min), the cell numbers of inflammatory cells (eosinophils, macrophages, lymphocytes and neutrophils) present in the BAL fluid were counted using a Diff-Quik stain kit.
# The supernatant of the BAL fluid stored was taken out of the super-cryostat and IL-4, IL-5 and IL-13 levels were measured as the pro-inflammatory cytokine contents in the supernatant of the BAL fluid. A quantitative ELISA kit (a product from R&D systems) and a microplate reader (a product from Bio-Rad Laboratories, Inc.) were used for the measurement and the measurement wavelength was 450 nm.
# [3] = system: IgE; experiment: Total content of IgE in serum, ovalbumin asthma model; type: in vivo, BALB/c female mice; conditions: day 25, compared to OVA group
# Protocol: as §1
# The test was conducted on the schedule of sensitization, causing diseases and administration of test materials shown in FIG. 12. “IP” in FIG. 12 refers to ovalbumin sensitization treatment by the intraperitoneal administration of ovalbumin/aluminum hydroxide, and “IH” refers to inhalation exposure treatment of ovalbumin, and “PO” refers to the administration of the test materials. Specifically, 200 μL of PBS (pH 7.4) emulsified by the addition of 20 μg ovalbumin and 2 mg aluminum hydroxide as an adjuvant was intraperitoneally administered to all mice in 4 groups except the normal control group (the initial sensitization, day 1 of the test). Then, after 2 weeks (day 14 of the test), the second sensitization treatment was conducted in the same way as the initial sensitization. […]
# On day 25 of the test, the total contents of IgE and contents of ovalbumin-specific IgE in serums were measured using blood collected from orbital sinuses of the mice. An ELISA kit for IgE measurement (a product from BioLegend, Inc.) was used for the measurement and the contents were measured at wavelength of 450 nm using a micro plate reader (a product from Bio-Rad Laboratories, Inc.).
compound,measurement,setting,value
"CCCCCCOc1cc(C)c(O)c(C)c1C [HTHQ, 2,3,5-trimethylhydroquinone-1-hexyl ether]",TNF-α level in BAL fluid,[1],effectively reduced
same,IL-13 content in BAL fluid,[2],significantly reduced
same,total amount of IgE in serum,[3]; HTHQ 20 mg/kg/day oral (HTHQ20),significant reduction
same,total amount of IgE in serum,[3]; HTHQ 40 mg/kg/day oral (HTHQ40),a declining trend
